Assay results reported in ChEMBL document CHEMBL1201862, “PubChem BioAssay data set” (2004).
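Dose response: 5 concentrations. Exposure: 48 h. Format: 96-well plates. Endpoint: linear interpolation; highest concentration if not reached. Here, GI50 denotes the concentration required for 50% inhibition of growth.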 Active and inactive are the calls of the source. Cut-off read from the data, not from the text of the source: active = GI50 up to about 1.1 µM and inactive = higher.

How the values were obtained:
Test in all cases: growth of human tumour cells (NCI), 48 h
[1] = test system: HOP-18
[2] = test system: KM-20L2
[3] = test system: SNB-75
[4] = test system: UACC-257
[5] = test system: HOP-62
[6] = test system: RXF 631
[7] = test system: A549
[8] = test system: K562
[9] = test system: OVCAR-3
[10] = test system: Malme-3M
[11] = test system: HCT-116
[12] = test system: SF-268
[13] = test system: DMS-114
[14] = test system: OVCAR-4
[15] = test system: SN12C
[16] = test system: HCT-15
[17] = test system: EKVX
[18] = test system: SK-MEL-28
[19] = test system: M19-MEL
[20] = test system: SF-539
[21] = test system: SK-OV-3
[22] = test system: HCC 2998
[23] = test system: NCI-H522
[24] = test system: HL-60
[25] = test system: HOP-92
[26] = test system: DLD-1
[27] = test system: SW-620
[28] = test system: RPMI-8226
[29] = test system: UO-31
[30] = test system: KM12
[31] = test system: SNB-19
[32] = test system: COLO 205
[33] = test system: 786-0
[34] = test system: SK-MEL-5
[35] = test system: RXF 393
[36] = test system: LXFL 529
[37] = test system: M14
[38] = test system: NCI-H460
[39] = test system: OVCAR-8
[40] = test system: LOX IMVI
[41] = test system: HT-29
[42] = test system: NCI-H226
[43] = test system: CCRF-CEM
[44] = test system: SF-295
[45] = test system: A498
[46] = test system: SNB-78
[47] = test system: NCI-H23
[48] = test system: U-251
[49] = test system: TK-10
[50] = test system: UACC-62
[51] = test system: OVCAR-5
[52] = test system: IGROV-1
[53] = test system: ACHN
[54] = test system: CAKI-1
[55] = test system: MOLT-4
[56] = test system: SK-MEL-2
[57] = test system: XF498

In the case of `COC(=O)C(C#CCCCCC#CC(NC(=O)OCc1ccccc1)(C(=O)OC)C(F)(F)F)(NC(=O)OCc1ccccc1)C(F)(F)F` (stereo not given), the GI50 [1] is reported as > 100 µM (inactive), the GI50 [2] is reported as > 100 µM (inactive) and the GI50 [3] is reported as > 100 µM (inactive). The GI50 [4] was > 100 µM (inactive), the GI50 [5] was > 100 µM (inactive) and the GI50 [6] was > 100 µM (inactive). For the same compound, the GI50 [7] was 73.6 µM (inactive), the GI50 [8] was 8.38 µM (inactive) and the GI50 [9] was > 100 µM (inactive). For the same compound, the GI50 [10] was > 100 µM (inactive), the GI50 [11] was 97.9 µM (inactive) and the GI50 [12] was > 100 µM (inactive). For the same compound, the GI50 [13] was 28.1 µM (inactive), the GI50 [14] was > 100 µM (inactive) and the GI50 [15] was > 100 µM (inactive). The GI50 [16] was greater than 100 µM, the GI50 [17] was > 100 µM (inactive) and the GI50 [18] was > 100 µM (inactive). For the same compound, the GI50 [19] was > 100 µM (inactive), the GI50 [20] was > 100 µM (inactive) and the GI50 [21] was > 100 µM (inactive). For the same compound, the GI50 [22] was > 100 µM (inactive), the GI50 [23] was > 100 µM (inactive) and the GI50 [24] was > 100 µM (inactive). The GI50 [25] was > 100 µM (inactive), the GI50 [26] was > 100 µM (inactive) and the GI50 [27] was > 100 µM (inactive). The GI50 [28] was 4.36 µM (inactive), the GI50 [29] was 7.45 µM (inactive) and the GI50 [30] was > 100 µM (inactive). The GI50 [31] was > 100 µM (inactive), the GI50 [32] was > 100 µM (inactive) and the GI50 [33] was > 100 µM (inactive). For the same compound, the GI50 [34] was > 100 µM (inactive), the GI50 [35] was > 100 µM (inactive) and the GI50 [36] was > 100 µM (inactive). The GI50 [37] was > 100 µM (inactive), the GI50 [38] was > 100 µM (inactive) and the GI50 [39] was > 100 µM (inactive). For the same compound, the GI50 [40] was > 100 µM (inactive), the GI50 [41] was > 100 µM (inactive) and the GI50 [42] was > 100 µM (inactive). For the same compound, the GI50 [43] was > 100 µM (inactive), the GI50 [44] was > 100 µM (inactive) and the GI50 [45] was > 100 µM (inactive). For the same compound, the GI50 [46] was > 100 µM (inactive), the GI50 [47] was > 100 µM (inactive) and the GI50 [48] was > 100 µM (inactive). The GI50 [49] was > 100 µM (inactive), the GI50 [50] was > 100 µM (inactive) and the GI50 [51] was > 100 µM (inactive). For the same compound, the GI50 [52] was > 100 µM (inactive), the GI50 [53] was > 100 µM (inactive) and the GI50 [54] was > 100 µM (inactive).
In the case of `O=C(Nc1cccc([N+](=O)[O-])c1)C(=O)C(C(=O)c1ccccc1-c1ccccc1)C1OC(=O)c2ccccc21` (stereo not given), the GI50 [2] is reported as 23.3 µM (inactive), the GI50 [55] is reported as 13.2 µM (inactive) and the GI50 [3] is reported as 22.9 µM (inactive). The GI50 [4] was 20.1 µM (inactive), the GI50 [5] was 16.6 µM (inactive) and the GI50 [6] was 22 µM (inactive). For the same compound, the GI50 [56] was 17.9 µM (inactive), the GI50 [7] was 26.9 µM (inactive) and the GI50 [8] was 28 µM (inactive). For the same compound, the GI50 [9] was 15.4 µM (inactive), the GI50 [10] was 13.6 µM (inactive) and the GI50 [11] was 12.8 µM (inactive). For the same compound, the GI50 [12] was 22.2 µM (inactive), the GI50 [13] was 14.5 µM (inactive) and the GI50 [17] was 25.6 µM (inactive). The GI50 [18] was 23.5 µM (inactive), the GI50 [19] was 15.9 µM (inactive) and the GI50 [20] was 14.5 µM (inactive). The GI50 [21] was 32.5 µM (inactive), the GI50 [22] was 16.2 µM (inactive) and the GI50 [23] was 11.4 µM (inactive). The GI50 [24] was 16.2 µM (inactive), the GI50 [25] was 13.4 µM (inactive) and the GI50 [26] was 19.9 µM (inactive). For the same compound, the GI50 [27] was 27.2 µM (inactive), the GI50 [28] was 13.4 µM (inactive) and the GI50 [29] was 20.2 µM (inactive). For the same compound, the GI50 [30] was 20 µM (inactive), the GI50 [32] was 20 µM (inactive) and the GI50 [33] was 18.7 µM (inactive). The GI50 [34] was 16.2 µM (inactive), the GI50 [35] was 13.3 µM (inactive) and the GI50 [36] was 13.1 µM (inactive). For the same compound, the GI50 [37] was 17.8 µM (inactive), the GI50 [38] was 25.9 µM (inactive) and the GI50 [39] was 22.3 µM (inactive). The GI50 [40] was 17 µM (inactive), the GI50 [41] was 38.8 µM (inactive) and the GI50 [42] was 5.96 µM (inactive). The GI50 [43] was 22.9 µM (inactive), the GI50 [57] was 20.4 µM (inactive) and the GI50 [44] was 22 µM (inactive). For the same compound, the GI50 [45] was 23.2 µM (inactive), the GI50 [46] was 23.2 µM (inactive) and the GI50 [47] was 14.7 µM (inactive). For the same compound, the GI50 [48] was 13.4 µM (inactive), the GI50 [49] was 30.4 µM (inactive) and the GI50 [50] was 19.5 µM (inactive). The GI50 [51] was 22 µM (inactive), the GI50 [52] was 30.8 µM (inactive) and the GI50 [53] was 35.6 µM (inactive).
